Values of other authors in article PMC3850926, “Evaluation of the adverse event profile and pharmacodynamics of toceranib phosphate administered to dogs with solid tumors at doses below the maximum tolerated dose” (BMC Veterinary Research, 2013).

Tests used:
human cancer patients = conditions: cited from earlier work
VEGF = system: VEGF; design: method as in PMID 19212818; conditions: human patients; return to baseline during rest period; cited from earlier work

CCN(CC)CCNC(=O)c1c(C)[nH]c(/C=C2\C(=O)Nc3ccc(F)cc32)c1C [sunitinib]
incidence of PLN (human cancer patients; human cancer patients): approximately 2.5%
hypertension classified as grade 3 (human cancer patients; human patients with RCC): 8%
patients that developed hypertension (human cancer patients; human patients with renal cell carcinoma (RCC)): 24%
circulating endothelial precursors and plasma VEGF during treatment (VEGF): increase over time during treatment
